In patent US10160783B2, “Neuroactive 13, 17-substituted steroids as modulators for GABA type-A receptors” (priority 2013, dated 2018):
Where two headings read alike, the source gives them in different places.

How the values were obtained:
[1] = target: picrotoxin binding site on GABAA receptors; assay: [35S]-TBPS displacement (inhibition of [35S]-TBPS binding); settings: non-competitive displacement of [35S]-TBPS; ± SEM, duplicate experiments in triplicate
Description: The IC50 values for non-competitive displacers of [^35S]-TBPS from the picrotoxin binding site on GABAA receptors are reported in Table 1.
Results presented are from duplicate experiments performed in triplicate. Error limits are calculated as standard error of the mean. Methods used are known in the art (see Jiang, X., et al., Neurosteroid analogues. 9. Conformationally constrained pregnanes: structure-activity studies of 13,24-cyclo-18,21-dinorcholane analogues of the GABA modulatory and anesthetic steroids (3α,5α)- and […]. J. Med. Chem., 46: 5334-48 (2003)—the contents of which are hereby incorporated by reference in their entirety).

[2] = system: Tadpole; assay: Tadpole loss of righting reflex (LRR) and loss of swimming reflex (LSR); type: in vivo; settings: ± SEM
Description: Table 3 discloses the anesthetic effects of the compounds of the present disclosure. In particular, the anesthetic effect of the compounds of the present disclosure on Loss of Righting Reflex (LRR) and Loss of Swimming Reflex (LSR).
Methods used are known in the art (see Jiang, X., et al.). Error limits are calculated as standard error of the mean (N=10 or more animals at each of five or more different concentrations).

[3] = target: T1, rat α1β2γ2L type GABAA receptors expressed in Xenopus laevis oocytes (Rattus norvegicus, UniProt P18508+P62813+P63138, INS375LLRMFSFK); assay: Potentiation of GABA-mediated chloride currents and direct gating, oocyte electrophysiology; type: cell-based; settings: ± SEM, N ≥ 4; for oocyte electrophysiology 0.1 μM: ratio of currents measured in the presence/absence of added compound: 0.1 μM compound; for oocyte electrophysiology 0.1 μM: ratio of currents measured in the presence/absence of added compound / oocyte electrophysiology 1 μM: ratio of currents measured in the presence/absence of added compound / oocyte electrophysiology 10 μM: ratio of currents measured in the presence/absence of added compound: 2 μM GABA control response; for oocyte electrophysiology 1 μM: ratio of currents measured in the presence/absence of added compound: 1 μM compound; for oocyte electrophysiology 10 μM: ratio of currents measured in the presence/absence of added compound: 10 μM compound; for (gating) 10 μM: ratio of compound only current/2 μM GABA current: direct current gated by 10 μM compound in the absence of GABA
T1 construct: expressed in transfected cells; host or cells: Xenopus laevis oocytes
Description: The compounds of the present disclosure were evaluated for the ability to potentiate chloride currents mediated by 2 μM GABA at rat α1β2γ2L type GABAA receptors expressed in Xenopus laevis oocytes and the results are shown in Table 2.

[4] = loss of righting reflex, read-out: Tadpole LRR EC50
[5] = loss of swimming reflex, read-out: Tadpole LSR EC50

T1 sequence (P62813 28-455, stated change not applied): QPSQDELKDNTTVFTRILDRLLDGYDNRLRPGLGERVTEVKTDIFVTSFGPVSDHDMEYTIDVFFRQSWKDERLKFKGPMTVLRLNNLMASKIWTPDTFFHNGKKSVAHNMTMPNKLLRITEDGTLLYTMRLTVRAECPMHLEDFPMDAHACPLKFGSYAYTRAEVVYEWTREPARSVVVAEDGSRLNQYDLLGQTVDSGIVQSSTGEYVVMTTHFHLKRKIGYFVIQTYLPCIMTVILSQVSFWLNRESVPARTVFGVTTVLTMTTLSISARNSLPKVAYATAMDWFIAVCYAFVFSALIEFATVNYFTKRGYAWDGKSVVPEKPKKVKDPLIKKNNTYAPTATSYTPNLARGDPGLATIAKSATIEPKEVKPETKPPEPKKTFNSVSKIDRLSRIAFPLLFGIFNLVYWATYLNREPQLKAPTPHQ
T1 sequence (P63138 26-474, stated change not applied): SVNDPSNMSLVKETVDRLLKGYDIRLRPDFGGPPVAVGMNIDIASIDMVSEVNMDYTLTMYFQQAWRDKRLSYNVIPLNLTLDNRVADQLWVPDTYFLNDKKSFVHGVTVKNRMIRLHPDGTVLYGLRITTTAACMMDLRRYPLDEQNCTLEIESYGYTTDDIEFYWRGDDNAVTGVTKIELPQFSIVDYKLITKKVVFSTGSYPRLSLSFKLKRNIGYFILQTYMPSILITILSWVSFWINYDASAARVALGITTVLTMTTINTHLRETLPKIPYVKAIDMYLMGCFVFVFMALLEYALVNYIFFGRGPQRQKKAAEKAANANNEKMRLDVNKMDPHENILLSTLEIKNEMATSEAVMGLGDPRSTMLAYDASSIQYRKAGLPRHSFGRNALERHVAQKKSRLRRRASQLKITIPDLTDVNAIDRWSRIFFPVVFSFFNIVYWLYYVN
T1 sequence (P18508 with tags, fused parts or gaps INS375LLRMFSFK): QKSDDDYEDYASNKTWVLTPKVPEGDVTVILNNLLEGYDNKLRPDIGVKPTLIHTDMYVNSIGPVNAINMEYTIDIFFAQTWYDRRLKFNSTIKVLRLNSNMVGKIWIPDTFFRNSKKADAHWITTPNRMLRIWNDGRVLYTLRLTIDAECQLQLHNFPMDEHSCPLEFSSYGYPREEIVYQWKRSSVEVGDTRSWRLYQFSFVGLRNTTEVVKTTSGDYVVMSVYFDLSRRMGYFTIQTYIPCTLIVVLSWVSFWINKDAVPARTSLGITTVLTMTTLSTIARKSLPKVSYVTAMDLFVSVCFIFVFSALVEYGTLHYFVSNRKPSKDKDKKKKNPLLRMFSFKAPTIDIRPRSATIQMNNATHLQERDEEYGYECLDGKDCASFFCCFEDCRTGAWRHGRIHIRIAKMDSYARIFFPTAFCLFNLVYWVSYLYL

Structure (SMILES)	melting point	IC50 [1]	EC50 [2, 4]	EC50 [2, 5]	oocyte electrophysiology 0.1 μM: ratio of currents measured in the presence/absence of added compound [3]	oocyte electrophysiology 1 μM: ratio of currents measured in the presence/absence of added compound [3]	oocyte electrophysiology 10 μM: ratio of currents measured in the presence/absence of added compound [3]	(gating) 10 μM: ratio of compound only current/2 μM GABA current [3]	Tadpole LSR EC50 (μM) ([2]; loss of swimming reflex)
C=C[C@H]1CC[C@H]2[C@@H]3CC[C@H]4C[C@H](O)[C@@H](OC)C[C@]4(C)[C@H]3CC[C@]12C(C)=O [KK-140, 1-[(2β,3α,5α)-3-Hydroxy-2-Methoxy-18-norpregn-20-en-13-yl]ethanone]	155 to 157 °C	17 ± 3 nM	50 nM	300 nM	5.39 ± 2.76	11.90 ± 1.08	17.29 ± 2.10	0.27 ± 0.06	
C=C[C@H]1CC[C@H]2[C@@H]3C[C@@H](OC)[C@H]4C[C@H](O)CC[C@]4(C)[C@H]3CC[C@]12C(C)=O [KK-143, 1-[(3α,5α,6β)-3-Hydroxy-6-methoxy-18-norpregn-20-en-13-yl]ethanone]	158 to 160 °C	270 ± 19 nM	610 ± 60 nM	1730 ± 30 nM	1.23 ± 0.06	2.93 ± 0.30	8.43 ± 0.69	0.07 ± 0.02	
C=C[C@H]1CC[C@H]2[C@@H]3CC[C@H]4C[C@H](O)CC[C@]4(C)[C@H]3[C@@H](OC)C[C@]12C(C)=O [KK-144, 1-[(3α,5α,11β)-3-Hydroxy-11-methoxy-18-norpregn-20-en-13-yl]ethanone]	127 to 129 °C	72 ± 16 nM	180 ± 10 nM	550 ± 10 nM	1.40 ± 0.11	5.38 ± 0.55	10.59 ± 1.31	0.18 ± 0.02	
C=C[C@H]1CC[C@H]2[C@@H]3CC[C@H]4C[C@H](O)CC[C@]4(COC)[C@H]3CC[C@]12C(C)=O [KK-145, 1-[(3α,5α)-3-Hydroxy-19-methoxy-18-norpregn-20-en-13-yl]ethanone]	124 to 126 °C	53 ± 4 nM	140 ± 10 nM	550 ± 10 nM	1.75 ± 0.14	13.74 ± 3.71	35.57 ± 12.85	0.56 ± 0.07	
C=C[C@H]1CC[C@H]2[C@@H]3CC[C@H]4C[C@H](O)CC[C@]4(C)[C@H]3CC[C@]12C(C)=O [XJ-99, 1-[(3α,5α)-3-Hydroxy-18-norpregn-20-en-13-yl]ethanone]	178 to 179.5 °C	43 ± 12 nM	50 nM	140 nM	1.73 ± 0.20	3.96 ± 0.99	4.37 ± 1.28	0.07 ± 0.02	
CC[C@H]1CC[C@H]2[C@@H]3CC[C@H]4C[C@H](O)CC[C@]4(C)[C@H]3CC[C@]12C(C)=O [XJ-100, 1-[(3α,5α)-3-Hydroxy-18-norpregnan-13-yl]ethanone]	182 to 184 °C	276 ± 130 nM	460 ± 160 nM	> 10000 nM	1.33 ± 0.20	5.01 ± 0.89	8.41 ± 0.66	−0.06 ± 0.06	
CC(=O)[C@H]1CC[C@H]2[C@@H]3CC[C@H]4C[C@H](O)CC[C@]4(C)[C@H]3CC[C@]12C(C)=O [ZYC-71, (3α,5α)-13-Acetyl-3-hydroxy-18-norpregnan-20-one]	180 to 181 °C	82 ± 7 nM	1730 ± 10 nM	5480 ± 150 nM	1.82 ± 0.03	9.31 ± 0.46	19.44 ± 1.69	0.22 ± 0.01	
CC(=O)[C@]12CC[C@H]3[C@@H](CC[C@H]4C[C@H](O)CC[C@@]43C)[C@@H]1CC[C@@H]2[C@@H](C)O [ZYC-72, (3α,5α,20R)-13-Acetyl-18-norpregnane-3,20-diol]	159 to 161 °C	978 ± 618 nM	3060 nM	> 10000 nM	0.80 ± 0.08	1.30 ± 0.11	2.78 ± 0.37	−0.03 ± 0.11	
CC(=O)[C@]12CC[C@H]3[C@@H](CC[C@H]4C[C@H](O)CC[C@@]43C)[C@@H]1CC[C@@H]2CO [ZYC-73, 1-[(3α,5α,17β)-3-Hydroxy-17-hydroxymethyl-18-norandrostan-13-yl]ethanone]	166 to 168 °C	1460 nM	> 10000 nM		1.07 ± 0.15	1.42 ± 0.16	6.16 ± 0.71		None
CC(=O)[C@]12CC[C@H]3[C@@H](CC[C@H]4C[C@H](O)CC[C@@]43C)[C@@H]1CC[C@@H]2CCl [ZYC-74, 1-[(3α,5α,17β)-17-Chloromethy-3-hydroxy-18-norandrostan-13-yl]ethanone]	161 to 162 °C	415 ± 83 nM	3330 ± 1410 nM	5480 ± 200 nM	1.06 ± 0.04	1.98 ± 0.21	9.38 ± 1.71	0.03 ± 0.01	
C=C[C@]12CC[C@H]3[C@@H](CC[C@H]4C[C@H](O)CC[C@@]43C)[C@@H]1CC[C@@H]2C(C)=O [ZYC-75]	146 to 147 °C		670 ± 10 nM	2640 ± 10 nM					
C=C[C@]12CC[C@H]3[C@@H](CC[C@H]4C[C@H](O)CC[C@@]43C)[C@@H]1CC[C@@H]2[C@@H](C)O [ZYC-76, (3α,5α,20R)-13-Ethenyl-18-norpregnan-3,20-diol]	193 to 195 °C	497 ± 59 nM	742000 ± 202000 nM	1740 ± 30 nM	1.00 ± 0.01	1.56 ± 0.13	7.28 ± 1.76	0.04 ± 0.02	
